Laboratory results reported in a melting point compilation (Tetko et al.; mined from patent text by program, amines drawn as free bases though some values may be those of a salt).

First: CCOC(=O)Cc1cccc(N[C@@H](CCC(N)=O)C(=O)O)c1
Second: CCOC(=O)[C@H](Cc1ccc(OC)c(OC)c1)NC(=O)c1ccnc(Br)c1
The melting point of the first is higher: 176 °C for the first, 108 to 109 °C for the second.

Compared with `CCCCC/C=C\C/C=C\CCCCCCCC(=O)Nc1cccc(N(CC(=O)O)CC(=O)O)c1`, `CCCCCCCCCCCCCCCCCCOc1cc(OCCCCCCc2cccc(O)c2O)cc(C(=O)O)c1` is lower in melting point: 135 to 140 °C for the first, 92 to 94 °C for the second.

First: CCc1cc2c(Sc3nnc(C)s3)ncnc2s1
Second: CN(C)c1nc2sc3c(NCCN4CCOCC4)ncnc3c2c2c1CCC(C)(C)C2
The melting point of the first is lower: 132 to 135 °C for the first, 173 to 175 °C for the second.

`Cn1nc(-c2ccccc2)nc1-c1ccccc1CBr` and `CC(C)(C)n1nnc(-c2ccccc2-c2cccc3ccccc23)n1` fall in the same range of melting point: 83 to 85 °C for the first, 83 to 85 °C for the second.

Compared with `O=C(O)CCCCCc1nn(-c2ccc(F)cc2)c2c1CCC2`, `CC(=O)N(CC(C)C)C1NC(=O)N(c2ccc(C(=O)O)cc2)C(=O)N1` is higher in melting point: 64 to 67 °C for the first, 191 to 193 °C for the second.

Compared with `CCOC(=O)CC(O)CC(O)C=Cc1c(C(C)C)sc(-c2ccccc2)c1-c1ccc(F)cc1` (centres undefined), `CCOC(=O)[C@@H](O)[C@@H](NC(=O)c1ccccc1)c1ccccc1` is higher in melting point: 123 to 125 °C for the first, 160 to 161 °C for the second.

First: Cc1cc(Oc2cccc(C(F)(F)F)c2)nn1C(=O)Nc1ccc(F)cc1
Second: NC(=O)c1ccc(-c2cccc3cc(Cc4cccc(C(F)(F)F)c4)sc23)cc1
The melting point of the first is lower: 70 to 72 °C for the first, 175 to 176 °C for the second.

`Nc1cccc(C(F)(F)F)c1CCl` and `O=C(c1cccc(C(F)(F)F)c1F)N1CCN(Cc2cncc(Nc3cc[nH]n3)n2)CC1` cannot be ordered by melting point: 155 to 161 °C for the first, 160 to 163 °C for the second.

Compared with `CCOc1ccc(C(=O)N2CC(C(=O)OC)N(S(=O)(=O)c3ccc(OC)cc3)Cc3ccccc32)cc1` (centres undefined), `O=C(NNc1ccc(NC(=S)NCc2ccccc2)cc1)c1ccc(Cl)cc1` is higher in melting point: 187 to 190 °C for the first, 197 to 199 °C for the second.

First: C=CC(=O)NC[C@H](O)[C@@H](O)[C@H](O)[C@H](O)CO
Second: Cc1c(C(C)CC(=O)O)n(Cc2ccc(Cl)cc2)c2ccc(O)cc12 (centres undefined)
The melting point of the first is lower: 122 to 123 °C for the first, 162 °C for the second.

Compared with `O=C1c2ccccc2S(=O)(=O)N1CS(=O)(=O)c1ccccc1`, `O=c1oc(-c2ccccc2)cc(O)c1Cc1cccnc1SCc1ccccc1` is lower in melting point: 169 to 171 °C for the first, 103 to 106 °C for the second.

First: Cn1c(-c2ccc(C=Cc3ccc(-c4ccccc4)cc3)cc2)cc2ccccc21
Second: Cc1c(-c2ccncc2)[nH]c2c1C(=O)CC(c1ccccc1)C2 (centres undefined)
The melting point of the first is lower: 254 °C for the first, 256 to 257 °C for the second.

Compared with `CCOC(=O)/C=C1\OC(=O)c2ccccc21`, `O=C(O)COc1ccc(C(=O)C=Cc2ccccc2F)c(Cl)c1Cl` is higher in melting point: 132 to 134 °C for the first, 191 to 194 °C for the second.

First: C/C(=C(\C#N)C(N)=S)N1CCCSCC1
Second: CC(C)c1noc([C@]2(C)CC[C@H](NCC(=O)N3C[C@@H](F)C[C@H]3C#N)C2(C)C)n1
The melting point of the first is higher: 138 to 142 °C for the first, 82 to 85 °C for the second.

First: O=CN1C2CCC1CC(Oc1ccc(Cl)cn1)C2 (centres undefined)
Second: CN1CCC2c3[nH]c4ccccc4c3CCN2C1 (centres undefined)
The melting point of the first is lower: 112 to 114 °C for the first, 168 °C for the second.

First: Oc1ccc(-c2noc3cc(O)ccc23)cc1
Second: CC(C)/[N+]([O-])=C/c1ccc(O)cc1
The melting point of the first is lower: 192 to 194 °C for the first, 217 to 218 °C for the second.

First: CCN(CC)CCc1c(C)[nH]c(C=C2C(=O)[NH+]([O-])N=C2c2cnccn2)c1C (centres undefined)
Second: Cc1cc(Br)cnc1CCCCNc1ncc(Cc2ccc3c(c2)OCO3)c(=O)[nH]1
The melting point of the first is higher: 192 °C for the first, 145 to 146 °C for the second.

First: COc1ccc2nccc(NC(=O)N3CCN(CC(O)c4ccc5c(c4)NC(=O)CO5)CC3)c2n1 (centres undefined)
Second: CCn1cccc(C2c3cc(C(=O)OC)ccc3OC(C)(C)C2O)c1=O (centres undefined)
The melting point of the first is higher: 231 to 233 °C for the first, 120 °C for the second.

First: CC1C(c2ccccc2)NC(=S)N1O (centres undefined)
Second: COc1ccnc(C(=O)N[C@H]2COC(=O)[C@H](Cc3ccccc3)[C@@H](OCSC)[C@H](C)OC2=O)c1O
The melting point of the first is higher: 202 °C for the first, 159 to 160 °C for the second.

Molecule `CC1CCN(CCCC(=O)c2ccc3c(c2)Cc2cc(C(=O)CCCN4CCC(C)CC4)ccc2-3)CC1` has a melting point of 180 to 181 °C.
